As a reminder, the Kd is the constant that tells how readily two partners part at equilibrium. By logP is commonly meant the decadic logarithm of the partition coefficient of the neutral form, usually between octanol and water.

Where two headings read alike, the source gives them in different places.

For data set [1], the target named is HasA (Pseudomonas aeruginosa, UniProt G3XD33). In words: Kd determination by fluorescence quenching of apo-HasAp. Particulars: read-out: HasA Kd; apo-HasAp 1 μM, 20 mM sodium phosphate pH 7.4, 25 °C, one-site binding fit. On the procedure:
Wild-type, full-length HasAp was prepared from freshly transformed Escherichia coli BL21(DE3) competent cells as previously described in 4 L of M9 media. Cell pellets were resuspended and lysed with an LM-20 microfluidizer at 18,000 psi. Lysate was clarified by centrifugation and applied to a Q-Sepharose column. HasAp was eluted over a gradient from 20 to 600 mM NaCl in 20 mM Tris-HCl (pH 7.5), and desired fractions determined by SDS-PAGE were pooled. Apo-HasAp was further purified on a Butyl Sepharose Fast Flow column equilibrated with 50 mM sodium phosphate buffer with 0.7 M ammonium sulfate (pH 7.0). Holo-HasAp and other proteins eluted within 2–3 bed volumes of 50 mM sodium phosphate containing 0.5 M ammonium sulfate. Apo-HasAp was then eluted with a linear gradient of sodium phosphate buffer (50–20 mM) containing ammonium sulfate (0.5–0 M). Fractions were analyzed again by SDS-PAGE, and the apo-HasAp was pooled, concentrated (Amicon stirred cell with Ultracel 10 kDa filter), and exchanged into 20 mM sodium phosphate buffer.
Binding affinities were determined using a BioTek Synergy H1 microplate reader in a black 96-well plate. Compounds were solvated in H2O in serial dilutions (100–0.39 μM). One micromolar solution of apo-HasAp 20 mM sodium phosphate buffer (pH 7.4, 25 °C) was titrated into the ligand of interest. Emission spectra were recorded (300–500 nm) after excitation at 280 nm. The decrease in maximum emission was plotted against the ligand concentration (accounting for dilution) and fit to one-site binding using GraphPad Prism v10.

A short description of data set [2]: Experimental LogP by reverse-phase HPLC method. It counts as physicochemical. Particulars: extrapolated log kw. The text has this: LogP was experimentally determined using previously published reverse-phase high-performance liquid chromatography method, and this workflow was adapted using instrumentation described in the previous LC-MS/MS analysis section ([Coutinho et al, 2023]). Briefly, analogs were eluted using isocratic flow with an increasing percentage of organic solvent from 55% to 90% in increments of 5%. The change in the log of the retention factor, log k, was plotted against the fraction of organic solvent. This allowed for extrapolation to the y-intercept, which is when the fraction of organic in the system is zero, or log kw. The same workflow was applied to known compounds with a published logP value to establish a relationship between logP and log kw. This ratio was used to calculate the experimental logP from the log kw of the test compounds. The in silico prediction of logP values was obtained using an online calculator by Molinspiration Cheminformatics (molinspiration.com).

A short description of data set [3]: Caco-2 permeability screening. The data set is classed as in vitro ADME. Particulars: for Papp: Caco-2, ranked by Papp against control drugs, read-out: Permeability ranking; for efflux ratio at 20 µM: human. On the procedure:
Caco-2 cells were received from American Type Culture Collection and certified mycoplasma free. Cells were seeded on transwell plates (CoStar, growth area 0.33 cm^2/well, polycarbonate membrane, 0.33 μm pore size) between passage 20 and 27 and then analyzed between 21 and 25 days after wells were seeded to ensure enterocyte-like differentiation. Before assessing permeability, cells were washed once with Hank’s Balanced Salt Solution buffer, pH 7.4, and then incubated at 37 °C for 30 minutes. Transepithelial electrical resistance (TEER) was measured after equilibration before the experiment using an epithelial volt-ohmmeter (EVOM, World Precision Instruments), and cells were used if TEER > 250 Ω × cm^2. Cells were dosed to measure permeability from basolateral and apical sides at a concentration of 20 μM of test compound and 50 μM of Lucifer yellow. Lucifer yellow was used as a “zero permeability” marker to monitor the integrity of cell barrier. Samples were taken at 0 and 60 minutes from the donor side, and samples were taken at 30 and 60 minutes from the receiver side; media was replenished after the 30-minute sample was taken from both chambers. A calibration curve was prepared by serial dilution using the dosing solution in a 1:5 dilution. […] Samples were prepared for LC-MS/MS analysis by taking 100 μL of sample, adding 1 μM internal standard (GaSal-4 or GaSal-5), and crashing with 400 μL of methanol. Samples were centrifuged at 3000 rpm at 4 °C for 30 minutes, 200 μL of supernatant was transferred to a new plate, and 100 μL of water was added to each sample. Samples were vortexed and analyzed by LC-MS/MS as described earlier. […] To preliminarily evaluate organic cation transporter 1 (OCT1) or P-glycoprotein (P-gp)-dependent transport, transport studies were conducted with and without a 1 μM “inhibitor cocktail” alongside GaSal. […] The Papp for basolateral to apical, Papp apical to basolateral, and efflux ratio were reported for each compound. In order to calculate Papp, the concentration in the sampled time point was determined from the calibration curve and then converted to μg based on the volume of the chamber (0.2 mL for apical, 1.0 mL for basolateral). […] The calculation of Papp was determined using eq. […] Data are presented as the average ± SEM for each compound analyzed as n = 3 on 2 different days with 2 different cell line passages, for n = 6 total. GaSal is n = 3 on 3 different cell line passages since this was used as a test compound for the inhibition cocktail experiments.
In general terms: Passage across Caco-2 layers is used to estimate intestinal permeability.

Setting [4] is: Caco-2, 20 μM, 30 and 60 min, average ± SEM, read-out: Papp apical to basolateral.
[5] abbreviates: Caco-2, 20 μM, 30 and 60 min, average ± SEM, read-out: Papp basolateral to apical.
[6] abbreviates: Caco-2, 20 μM, read-out: Efflux ratio B to A/A to B.

HasA, sequence (G3XD33 entry or part of it): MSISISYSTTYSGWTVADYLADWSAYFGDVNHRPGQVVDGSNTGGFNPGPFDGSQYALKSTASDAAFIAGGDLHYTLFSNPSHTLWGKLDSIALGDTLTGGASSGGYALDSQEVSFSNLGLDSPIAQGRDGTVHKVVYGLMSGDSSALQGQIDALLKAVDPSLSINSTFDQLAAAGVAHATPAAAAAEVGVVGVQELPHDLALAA

With `Oc1ccccc1/C=N/c1ccccc1/N=C/c1ccccc1O.[Ga+3]` [GaSal, gallium salophen], the dissociation constant Kd in data set [1] is 800 ± 100 nM. The lipophilicity (logP) in data set [2] was 2.58. Further, the Papp A→B in data set [3] (setting [4]) is 1.2 ± 0.01 ×10⁻⁶ cm/s; in data set [3] (Caco-2, with OCT1 inhibitor cocktail (1 μM verapamil and cisplatin), read-out: Papp Apical to Basolateral), 1.81 ± 0.03 ×10⁻⁶ cm/s; in data set [3] (Caco-2, with PGP inhibitor cocktail (1 μM cannabidiol and itraconazole), read-out: Papp Apical to Basolateral), 1.33 ± 0.03 ×10⁻⁶ cm/s. In addition, the Papp B→A in data set [3] (setting [5]) was found to be 13.6 ± 1.78 ×10⁻⁶ cm/s; in data set [3] (Caco-2, with OCT1 inhibitor cocktail (1 μM verapamil and cisplatin), read-out: Papp Basolateral to Apical) it was 14.7 ± 3.26 ×10⁻⁶ cm/s; in data set [3] (Caco-2, with PGP inhibitor cocktail (1 μM cannabidiol and itraconazole), read-out: Papp Basolateral to Apical) it was 16.8 ± 3.86 ×10⁻⁶ cm/s. Moreover, in data set [3], the Papp was 1.12 to 3.51 ×10⁻⁶ cm/s. In addition, the efflux ratio at 20 µM in data set [3] (setting [6]) is 11.3; in data set [3] (Caco-2, with OCT1 inhibitor cocktail, read-out: Efflux Ratio B to A/ A to B), 8.1; in data set [3] (Caco-2, with PGP inhibitor cocktail, read-out: Efflux Ratio B to A/ A to B), 12.6.
For `Oc1cc(OCCN2CCOCC2)ccc1C=Nc1ccccc1N=Cc1ccc(OCCN2CCOCC2)cc1O.[Ga+3]` [GaSal-3], the Kd in data set [1] was found to be 1500 ± 300 nM. Further, the logP in data set [2] was 3.87. Also, in data set [3] (setting [4]), the Papp A→B worked out at 0.04 ± 0.01 ×10⁻⁶ cm/s. Also, the Papp B→A in data set [3] (setting [5]) is 1.16 ± 0.09 ×10⁻⁶ cm/s. The Papp in data set [3] is below 1.12 ×10⁻⁶ cm/s. In data set [3] (setting [6]), the efflux ratio at 20 µM was found to be 29.
Consider `O=C(O)CCOc1ccc(C=Nc2ccccc2N=Cc2ccc(OCCC(=O)O)cc2O)c(O)c1.[Ga+3]` [GaSal-4], for which, in data set [1], the Kd is 1100 ± 100 nM. In data set [2], the logP is 3.33. For the same molecule, in data set [3] (setting [4]), the Papp A→B was below 0.01 ×10⁻⁶ cm/s. Also, in data set [3] (setting [5]), the Papp B→A is 1.44 ± 0.19 ×10⁻⁶ cm/s. For the same molecule, the Papp in data set [3] was below 1.12 ×10⁻⁶ cm/s.
As to `COCCOCCOc1ccc(C=Nc2ccccc2N=Cc2ccc(OCCOCCOC)cc2O)c(O)c1.[Ga+3]` [GaSal-5], in data set [1], the Kd is 2500 ± 1200 nM. Besides, the logP in data set [2] was 3.95. Besides, the Papp A→B in data set [3] (setting [4]) was 0.03 ± 0.01 ×10⁻⁶ cm/s. The Papp B→A in data set [3] (setting [5]) was determined as 3.2 ± 0.2 ×10⁻⁶ cm/s. The Papp in data set [3] is below 1.12 ×10⁻⁶ cm/s. In addition, the efflux ratio at 20 µM in data set [3] (setting [6]) turned out to be 107.
As for `COCCOc1ccc(/C=N/c2ccccc2/N=C/c2ccc(OCCOC)cc2O)c(O)c1.[Ga+3]` [GaSal-13], the Kd in data set [1] came to 960 ± 140 nM. The lipophilicity (logP) in data set [2] is 3.65. In addition, in data set [3] (setting [4]), the Papp A→B turned out to be 0.61 ± 0.01 ×10⁻⁶ cm/s. Moreover, the Papp B→A in data set [3] (setting [5]) was 0.91 ± 0.1 ×10⁻⁶ cm/s. Also, the Papp in data set [3] is below 1.12 ×10⁻⁶ cm/s. In addition, the efflux ratio at 20 µM in data set [3] (setting [6]) was 1.49.
As to `COCCOc1ccc(/C=N/c2ccccc2N=C(C)c2ccccc2O)c(O)c1.[Ga+3]` [GaSal-14], the Kd in data set [1] was 2840 ± 120 nM. The lipophilicity (logP) in data set [2] was 3.31. Besides, the Papp A→B in data set [3] (setting [4]) is below 0.01 ×10⁻⁶ cm/s. Moreover, in data set [3] (setting [5]), the Papp B→A amounted to 1.19 ± 0.4 ×10⁻⁶ cm/s. Also, the Papp in data set [3] is below 1.12 ×10⁻⁶ cm/s.

Source of the values: publication PMC12264554, “Application of preclinical absorption, distribution, metabolism, elimination in vitro techniques for the characterization and compound library optimization of novel antibiotic gallium salophen” (Drug Metabolism and Disposition, 2025).
